Source: patent publication US5028733A, “Prostaglandins” (National Research Development Corporation, priority 1980, dated 1991)

What was measured:
Format in all cases: cell-based
human platelets = molecular target: T1, human platelets (Homo sapiens, UniProt P21731); assay: Human platelet system, antagonism of aggregation by 11,9-(epoxymethano) PGH2 (affinity constant KB); settings: for Kb: vs 11,9-(epoxymethano) PGH2, compound added 5 min before, Gaddum-Schild, read-out: Affinity Constants, Human Platelets (KB) (converted)
T1 construct: Platelet-rich plasma is obtained from fresh, citrated human blood; endogenous in cells; host or cells: human platelets in platelet-rich plasma
T1 sequence (P21731 1-343): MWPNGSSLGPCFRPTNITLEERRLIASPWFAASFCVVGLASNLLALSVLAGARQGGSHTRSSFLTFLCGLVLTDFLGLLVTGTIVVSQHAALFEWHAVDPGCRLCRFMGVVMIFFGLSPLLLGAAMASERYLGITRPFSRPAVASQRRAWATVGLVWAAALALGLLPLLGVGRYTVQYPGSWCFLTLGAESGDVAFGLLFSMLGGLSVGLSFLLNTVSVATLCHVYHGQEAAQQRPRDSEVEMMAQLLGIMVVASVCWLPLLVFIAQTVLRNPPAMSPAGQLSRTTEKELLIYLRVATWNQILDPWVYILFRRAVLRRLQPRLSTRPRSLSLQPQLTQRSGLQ
Protocol: Platelet-rich plasma is obtained from fresh, citrated human blood. Addition of the 11,9-(epoxymethano) PGH2 (1×10^-7 to 5×10^-7 M) causes immediate aggregation recorded as an increase in light transmission (600 nm). In a second experiment the individual compounds are added five minutes previous to the addition of the PGH2 analogue. The dose of the PGH2 analogue added is then increased to a level which gives a similar response to that obtained in the absence of antagonist. The affinity constant, KB, for the compound is calculated according to the Gaddum - Schild Equation (based on Law of Mass Action).
(§1) [B]=molar concentration of compound

rabbit aorta [1] = assay: Rabbit aorta strip, antagonism of contraction by 11,9-(epoxymethano) PGH2 (affinity constant KB); settings: for Kb: vs 11,9-(epoxymethano) PGH2, 37° C, compound added 30 min before, Gaddum-Schild, read-out: Affinity Constants, Rabbit Aorta (KB) (converted)
Protocol: Spiral strips of thoracic aorta are suspended in Kreb's-Henseleit solution and aerated with 95% O2 /5% CO2 at 37° C. Tension changes are recorded with a Glass FTO3 force transducer. Initially, cumulative dose response curves to 11,9-(epoxymethano) PGH2 (2×10^-9, 1×10^-8, 5×10^-8 and 2.5×10^-7 M) are obtained. In a second experiment the individual compounds are added 30 minutes previous to the addition of the series of agonist doses. In the case of each compound, the affinity constant, KB, for the compound is calculated according to the Gaddum - Schild Equation (based on Law of Mass Action).
as §1

platelet = assay: Block of the aggregatory action of arachidonic acid on platelets; settings: in words
rabbit aorta [2] = assay: Block of the contractile action of noradrenaline in the rabbit aorta strip test; settings: in words

| Structure (SMILES) | Kb (human platelets) [nM] | Kb (rabbit aorta [1]) [nM] | other results |
| --- | --- | --- | --- |
| CC1(C)[C@H]2C[C@H](C=NNC(=S)Nc3ccccc3)[C@@H](C/C=C\CCCC(=O)O)[C@@H]1C2 | 2860 | 1670 |  |
| CC(=NNC(=O)Nc1ccccc1)[C@H]1C[C@H]2C[C@@H]([C@@H]1C/C=C\CCCC(=O)O)C2(C)C | 909 | 357 |  |
| O=C(O)CCCC=CCC1C(O)CCC1C=NOCc1ccc(F)cc1 (centres unmarked) |  | 2500 |  |
| COc1cccc(NC(=S)NN=C(C)[C@H]2[C@@H]3CC[C@@H](C3)[C@@H]2C/C=C\CCCC(=O)O)c1 (relative stereo) | 118 | 95.2 |  |
| CC(=NNC(=S)Nc1cccc(C(F)(F)F)c1)[C@H]1[C@@H]2CC[C@@H](C2)[C@@H]1C/C=C\CCCC(=O)O (relative stereo) | 189 | 118 |  |
| O=C(O)CCC/C=C\C[C@H]1C2CCC(CC2)[C@@H]1C=NNC(=O)Nc1ccccc1 (relative stereo) |  | 833 |  |
| COc1ccc(NC(=O)NN=C(C)[C@H]2C3CCC(CC3)[C@@H]2C/C=C\CCCC(=O)O)cc1 (relative stereo) | 55.6 | 55.6 |  |
| CC(=NNC(=S)Nc1ccccc1)[C@H]1C2CCC(CC2)[C@@H]1C/C=C\CCCC(=O)O (relative stereo) | 47.6 | 83.3 |  |
| CC(=NNC(=S)Nc1cccnc1)[C@H]1C2CCC(CC2)[C@@H]1C/C=C\CCCC(=O)O (relative stereo) | 667 | 256 |  |
| O=C(O)CCC/C=C\C[C@@H]1CC=CC[C@H]1C=NNC(=S)Nc1ccccc1 (relative stereo) | 500 | 1100 |  |
| O=C(O)CCC/C=C\C[C@H]1[C@H]2CC[C@H](C2)[C@@H]1C=NN=C(c1ccccc1)c1ccccc1 (relative stereo) |  | 667 |  |
| O=C(O)CCC/C=C\C[C@H]1[C@H]2CC[C@H](C2)[C@@H]1C=NNC(=O)CN(Cc1ccccc1)Cc1ccccc1 (relative stereo) |  | 833 |  |
| O=C(O)CCC/C=C\C[C@@H]1CC=CC[C@H]1C=NOCc1ccc(F)cc1 (relative stereo) | 8330 | 385 |  |
| O=C(O)CCC/C=C\C[C@H]1[C@H]2CC[C@H](C2)[C@@H]1C=NNC(=S)NCc1ccccc1 (relative stereo) [Example 1, 5-endo-(6'-Carboxyhex-2'Z-enyl)-6-exo-[N-(benzylthiocarbamoyl)-hydrazonomethyl]-bicyclo [2,2,1] heptane] |  |  | antagonist in the platelet test (human platelets; in words): antagonists in the platelet test; aggregatory action of arachidonic acid (platelet): block the aggregatory action of arachidonic acid; contractile action of noradrenaline (α-adrenoceptors) (rabbit aorta [2]): do not block the contractile action of noradrenaline; antagonist in the rabbit aorta strip test (rabbit aorta [1]; in words): pure antagonists in the rabbit aorta strip test |
| CCC(=NNC(=S)Nc1ccccc1)[C@H]1[C@@H]2CC[C@@H](C2)[C@@H]1C/C=C\CCCC(=O)O (relative stereo) [Example 3, 5-endo-(6'-Carboxyhex-2'Z-enyl)-6-exo-{1'-[N-(phenylthiocarbamoyl)-hydrazono]-propyl}-bicyclo [2,2,1] heptane] | 256 |  |  |
| CC1(C)[C@H]2C[C@H](C/C=C\CCCC(=O)O)C(C=NNC(=O)Nc3ccccc3)[C@@H]1C2 (single isomer, unassigned) | 2000 | 333 |  |

Further lines, with some results ahead:

| Kb (human platelets) [nM] | Structure (SMILES) | Kb (rabbit aorta [1]) [nM] | other results |
| --- | --- | --- | --- |
| 263 | O=C(O)CCC/C=C\C[C@H]1[C@H]2CC[C@H](C2)[C@@H]1C=NNC(=S)Nc1ccccc1 (relative stereo) | 526 |  |
| 45.5 | CC(=NNC(=S)Nc1cccc(F)c1)[C@H]1[C@@H]2CC[C@@H](C2)[C@@H]1C/C=C\CCCC(=O)O (relative stereo) | 70.4 |  |
| 102 | COc1ccc(NC(=S)NN=C(C)[C@H]2[C@@H]3CC[C@@H](C3)[C@@H]2C/C=C\CCCC(=O)O)cc1 (relative stereo) | 213 |  |
| 3450 | Cn1c(=NN=C[C@H]2[C@@H]3CC[C@@H](C3)[C@@H]2C/C=C\CCCC(=O)O)sc2ccccc21 (relative stereo) | 1520 |  |
| 5560 | O=C(O)CCC/C=C\C[C@H]1[C@H]2CC[C@H](C2)[C@@H]1C=NNc1nc2ccccc2o1 (relative stereo) | 500 |  |
| 667 | Cc1ccc(S(=O)(=O)NN=C[C@H]2[C@@H]3CC[C@@H](C3)[C@@H]2C/C=C\CCCC(=O)O)cc1 (relative stereo) | 345 |  |
| 4350 | O=C(O)CCC/C=C\C[C@H]1[C@H]2CC[C@H](C2)[C@@H]1C=NOCCOC(c1ccccc1)c1ccccc1 (relative stereo) | 10000 |  |
| 1280 | O=C(O)CCC/C=C\C[C@H]1[C@H]2CC[C@H](C2)[C@@H]1C=NNC(=S)NCc1ccccc1 (relative stereo) [drawing 41] | 526 |  |
| 50 | CC(=NNC(=S)Nc1ccccc1)[C@H]1[C@@H]2CC[C@@H](C2)[C@@H]1C/C=C\CCCC(=O)O (relative stereo) [drawing 42] | 90.9 |  |
